#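 96-well plates; 48 h exposure; 5 concentrations. Endpoints by linear interpolation between flanking doses. Not reached: highest tested concentration assigned. At the GI50, growth is halved. TGI: concentration producing complete growth inhibition.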
# What was measured:
# Experiment in all cases: inhibition of tumour cell growth, NCI panel, 48 h
# A549 NSCLC = test system: A549 NSCLC
# DU-145 prostate = test system: DU-145 prostate
# EKVX NSCLC = test system: EKVX NSCLC
# HT29 colon = test system: HT29 colon
# NCI/ADR-RES ovarian = test system: NCI/ADR-RES ovarian
# PC-3 prostate = test system: PC-3 prostate
# SF-295 CNS = test system: SF-295 CNS
# SR leukemia = test system: SR leukemia
# T-47D breast = test system: T-47D breast
# U251 CNS = test system: U251 CNS
SMILES,GI50 (A549 NSCLC),TGI (A549 NSCLC),GI50 (DU-145 prostate),TGI (DU-145 prostate),GI50 (EKVX NSCLC),TGI (EKVX NSCLC),GI50 (HT29 colon),GI50 (NCI/ADR-RES ovarian),TGI (NCI/ADR-RES ovarian),GI50 (PC-3 prostate),TGI (PC-3 prostate),GI50 (SF-295 CNS),TGI (SF-295 CNS),GI50 (SR leukemia),TGI (SR leukemia),GI50 (T-47D breast),TGI (T-47D breast),GI50 (U251 CNS),TGI (U251 CNS),TGI (HT29 colon)
CNC(=O)c1c(NC(=O)c2cccc(C(F)(F)F)c2)sc2c1CCC(=O)C2,0.387 µM,> 34.3 µM,3.22 µM,> 100 µM,0.593 µM,> 21.7 µM,0.347 µM,0.349 µM,1.72 µM,0.139 µM,1.19 µM,0.36 µM,1.88 µM,0.191 µM,> 100 µM,0.305 µM,2.29 µM,0.259 µM,2.73 µM,–
CCOC(=O)c1cc2c(n1Cc1cc(OC)cc(OC)c1)-c1oncc1CCC2,0.112 µM,> 100 µM,0.116 µM,–,–,–,0.0499 µM,0.0603 µM,–,0.0644 µM,> 100 µM,0.0291 µM,0.14 µM,0.0382 µM,> 100 µM,–,–,0.255 µM,> 100 µM,20.1 µM
CN(C)/C=C/c1nnnn1-c1ccc(Cl)cc1,30.5 µM,> 100 µM,14.2 µM,64.3 µM,30.9 µM,82.8 µM,20.2 µM,10.2 µM,36.3 µM,6.76 µM,35.5 µM,19 µM,36.7 µM,3.35 µM,29.6 µM,–,–,6.5 µM,> 100 µM,45 µM
C=C1C(=O)O[C@H]2[C@H]1CC/C(CNS(=O)(=O)c1ccc3ccccc3c1)=C\CC[C@@]1(C)O[C@@H]21,10.9 µM,25 µM,1.34 µM,3.56 µM,2.48 µM,11.1 µM,1.94 µM,7.11 µM,31.7 µM,7.59 µM,21.1 µM,7.49 µM,20.9 µM,1.23 µM,7.12 µM,1.92 µM,4.64 µM,8.29 µM,21.1 µM,3.91 µM
O=C(Nc1ccc(Cl)cc1)c1cc2c(cc1O)[nH]c1ccccc12,2.85 µM,10.3 µM,3.81 µM,13.2 µM,2.16 µM,7.89 µM,5.08 µM,2.87 µM,8.93 µM,3.96 µM,22.8 µM,1.67 µM,3.87 µM,3.44 µM,31.6 µM,2.37 µM,6.78 µM,3.18 µM,11.3 µM,17.9 µM
NC1C2C(CC(=O)O)OCC=C3CN4CCC1(C(=O)C(=O)O)C4CC32 (centres undefined),–,> 100 µM,–,> 100 µM,–,> 100 µM,–,–,> 100 µM,–,> 100 µM,–,> 100 µM,–,> 100 µM,–,> 100 µM,–,> 100 µM,> 100 µM
O=CN1N=C(c2ccc(Nc3ccnc4cc(Cl)ccc34)cc2)CC1c1ccccc1 (centres undefined),4.05 µM,> 100 µM,3.8 µM,27.8 µM,4.94 µM,> 100 µM,3.21 µM,2.69 µM,59.8 µM,4.76 µM,> 100 µM,2.41 µM,8.91 µM,1.77 µM,4.9 µM,2.18 µM,7.42 µM,3.12 µM,19.2 µM,11.1 µM
CC/C=C\C/C=C\C[C@H](O)C/C=C1/C(=O)C=C[C@H]1C/C=C\CCC(=O)OC,> 8.25 µM,> 8.25 µM,4.95 µM,> 8.25 µM,> 8.25 µM,> 8.25 µM,2.68 µM,3.74 µM,> 8.25 µM,3.75 µM,> 8.25 µM,> 8.25 µM,> 8.25 µM,1.61 µM,> 8.25 µM,2.93 µM,> 8.25 µM,2.66 µM,> 8.25 µM,6.79 µM
NC(=O)C(Br)CBr (centres undefined),3.71 µM,10.6 µM,2.26 µM,5.72 µM,1.9 µM,4.92 µM,1.59 µM,2.93 µM,> 24.1 µM,2.51 µM,11.7 µM,14.7 µM,35.2 µM,0.394 µM,2.56 µM,1.76 µM,6.4 µM,3.73 µM,14.7 µM,9.42 µM
CC1=C(C(=O)Nc2ccc3[nH]ncc3c2)C(c2ccc(F)cc2)NC(=O)N1 (centres undefined),> 25 µM,> 25 µM,> 25 µM,> 25 µM,> 25 µM,> 25 µM,> 25 µM,> 25 µM,> 25 µM,> 25 µM,> 25 µM,> 25 µM,> 25 µM,19.2 µM,> 25 µM,> 25 µM,> 25 µM,> 25 µM,> 25 µM,> 25 µM
CN(C)c1ccc(C(=O)c2ccc(N(C)C)c(N)c2)cc1N,8.4 µM,> 100 µM,5.32 µM,28.1 µM,8.87 µM,> 100 µM,1.14 µM,1.13 µM,12.3 µM,5.97 µM,> 100 µM,2.03 µM,33.4 µM,0.406 µM,> 16.4 µM,4.3 µM,> 46.1 µM,2.79 µM,> 100 µM,19.2 µM
Cc1nc2cncc(C#Cc3cncc(C(=O)Nc4ccc(CN5CCN(C)CC5)c(C(F)(F)F)c4)c3)c2nc1C,0.585 µM,7.28 µM,0.349 µM,6.48 µM,0.8 µM,5.05 µM,0.205 µM,1.83 µM,8.65 µM,1.51 µM,12.2 µM,2.13 µM,22.2 µM,0.46 µM,3.81 µM,1.24 µM,22.7 µM,0.559 µM,7.43 µM,7.56 µM
NS(=O)(=O)c1ccc(C2C3=C(CCCC3=O)OC3=C2C(=O)c2ccccc2C3=O)cc1 (centres undefined),1.42 µM,3.53 µM,0.74 µM,1.99 µM,0.699 µM,2.53 µM,1.07 µM,2.43 µM,14.6 µM,0.371 µM,1.33 µM,1.57 µM,3.31 µM,0.47 µM,3.88 µM,–,–,0.318 µM,1.05 µM,5.17 µM
